Test results: patent US6017958A, “Method of treating malignant tumors with thyroxine analogues having no significant hormonal activity” (Octamer, Inc., priority 1997, dated 2000)
Read-outs that look alike come from different tables or passages of the source.

Tests used:
DU 145 (prostate cancer) = test: Cytocidal action/growth inhibition, DU 145; format: cell-based; conditions: Homo sapiens
Experimental: Seven human cancer cell lines were obtained from the American Tissue Culture Collection (Rockville, Md.) and maintained in the recommended growth media. Cells were seeded into wells (2 cm^2) at a density of 2×10^4 cells/cm^2. Various concentrations of Compounds 1-13 were added to the media at the time of seeding.
The cultures were incubated for 72 hours at 37° C. (5% CO2 atmosphere). Following incubation, cells were detached with trypsin and counted in a hemocytometer.
I100 designates the concentration at which no viable cells remained; I50 the concentration at which 50% viable cells remained, as compared to a control.
E-ras 20 cells were cultured as reported, Bauer et al., 1996, "Modification of growth related enzymatic pathways and apparent loss of tumorigenicity of a ras-transformed bovine endothelial cell line by treatment with 5-iodo-6-amino-1,2-benzopyrone (INH2 BP)" Intl. J. Oncol. 8:239-252; HT-144 (melanoma), DU-145 (prostatic cancer), HeLa (cervical cancer), HL 60 (promyelocytic leukemia), MDA-MB-231 (mammary cancer), SK-Br-3 (mammary cancer), T47D (ductal mammary cancer), A559 (lung cancer) were obtained from American Type Culture Collection (Rockville, Md.) and cultured in prescribed media. The effect of DIME was tested in cultures with a starting cell density of 2×10^4 cells per cm^2 and comparison of the effect of DIME on cell growth (intact cells identified by Trypan blue exclusion) was assayed by direct cell counting after trypsinization in a hemocytometer 72 hours after drug addition.
For DIME-exposure experiments cells were seeded into 2 cm^2 wells at a density of 2×10^4 cells/cm^2. DIME at various concentrations was added to the medium at the time of seeding. The cell cultures were then incubated for 3 days (37° C. in 5% at CO2 atmosphere).

E-ras cells = test: DNA cuts (TUNEL); format: cell-based, bovine; conditions: 2-10 μM, 18 hours
Experimental: E-ras cells (2×10^4 cells/cm^2) were treated with DIME 18 hours prior to the TUNEL assay.
Assay for DNA cuts, as a signal for apoptosis, was via the terminal deoxynucleotidyl transferase dUTP nick end labeling (TUNEL) reaction as specified by the manufacturer of the assay kit (Boehringer Mannheim, Indianapolis, Ind., USA, Cat. No. 168-4817).

MDA-MB-231 cells = test: Flow cytometry / M phase block; format: cell-based, human
Experimental: The MDA-MB-231 cell line was obtained from ATCC (Rockville, Md., USA) and cells were cultured in T-75 flasks at 37° C. in Minimum Essential Medium-alpha, supplemented with 10% FCS. In controls, not receiving DIME, 0.1 μg/ml colcemid was added to cultures for 4 hrs prior to the collection of metaphase-blocked cells and preparation of cell spreads. […] Cells (10^7) were isolated from T-75 trypsinization for 5 min with 0.025% trypsin, and sedimented by centrifugation, resuspended and kept in 10 ml of 75 mM KC1 at 37° C. for 10 min, resedimented, and fixed in 10 ml methanol-acetic acid, with four successive changes of methanol-acetic acid. An aliquot of the final cell suspension (100 μl) was dropped on ethanol-cleaned slides and air-dried.
Cells exposed to different treatments were grown to confluence, trypsinized, and washed with phosphate buffered saline (PBS). For nuclear analysis, cells were fixed in Vindelov Citrate cell buffer: sucrose 250 mM, trisodium citrate. 2H20 40 mM, DMSO 50 ml in 1000 ml solution, pH 7.6. Normal human lymphocytes obtained from blood were used as controls. Each cell sample and control was counted with a hemacytometer and the cell concentration was adjusted to 2×10^6 cells/ml. Two million cells from each cell line in a total volume of 2 ml were washed twice with fresh PBS, treated with 200 μg/ml RNAase at 37° C. for 30 min, and stained with 10 μg/ml propidium iodide for 45 min. Flow cytometric analysis was performed on a FACScan benchtop flow cytometer (Becton-Dickinson, San Jose, Calif., USA) equipped with an air-cooled argon laser tuned to 488 nm. Twenty thousand events were collected as six parameter list mode data for analysis and archival storage. Two light scatter parameters (forward and side), propidium iodide fluorescence measured at 575/26 nm and above 620 nm, and doublet discrimination by fluorescence pulse width and area were acquired at 1024 data channel resolution. Acquisition threshold was set on propidium iodide positive events above channel 100. Gating to exclude small debris, large clumps and cell doublets was done post acquisition.

[1] = test system: microtubule protein (MTP); test: Microtubule protein (MTP) polymerization optical test; format: biochemical, bovine or rabbit
Experimental: Preparation of MTP and an optical test for polymerization was adopted from published methods, Gaskin, et al., 1974, "Turbidimetric studies of the in vitro assembly and disassembly of porcine neurotubules", J. Mol. Biol. 89:737-758; Tiwari, et al., 1993, "A pH and temperature-dependent cycling method that doubles the yield of microtubule protein", Anal. Biochem. 215:96-103. Bovine or rabbit brain was homogenized in an equal volume of ice cold buffer containing 100 mM Pipes/K^+ (pH 7.4), 4 mM EGTA, 1 mM MgCl2, 0.5 mM DTT and 0.1 mM PMSF, and centrifuged at 39,000 g for 1 hour at 4° C. To the supernatant, DMSO (8% final concentration) and GTP (1 mM final concentration) were added, followed by incubation at 37° C. for 30 minutes. Microtubules were pelleted at 100,000 g at 37° C for 30 minutes. The pellets were incubated on ice for 15 minutes, followed by resuspension in ice cold PEM buffer (100 mM Pipes/K+(pH 6.9), 1 mM EGTA, 1 mM MgCl2). This warm polymerization and cold depolymerization cycle was repeated once more and the cold, resuspended monomeric MTP (8-10 mg/ml protein) was used for the optical test for polymerization kinetics. Both rabbit or bovine brain yielded identical MTP preparations.
The composition of the optical test is described in the legends of Figures and Table 12. The polymerization reaction was started by the addition of 100 μl of MTP solution (equivalent to 0.8-1.0 mg protein) and initial linear rates of increase in absorbance at 350 nm followed and recorded at 37° C. (see FIG. 1) in a Perkin-Elmer 552 double beam spectrophotometer, equipped with a thermostatically controlled cuvette holder.
[…] Microtubule assembly at 37° C. was monitored at λ=350 nm and initial velocities were calculated as mA350 /min. […] The values are averages of duplicate assays.

[2] = 0.25 to 1.0 g/kg daily per os; cited from earlier work
Rana pipiens tadpoles = conditions: tadpole metamorphosis; cited from earlier work
[3] = test system: mouse pituitary thyrotropic tumors / non-malignant mouse pituitary adenoma; conditions: cited from earlier work

## COC(=O)c1cc(I)c(Oc2ccc(OC)cc2)c(I)c1 [Compound 1, Methyl 3,5-diiodo-4-(4'-methoxyphenoxy)benzoate]
DU 145 (prostate cancer); DU-145, 72 h, day 3, Table 11, read-out: I50 (day 3)
  IC50: 500 nM
DU 145 (prostate cancer); DU-145, 72 h, Table 4, read-out: I50
  IC50: 500 nM
DU 145 (prostate cancer); DU-145, 72 h, Table 4, read-out: I100 (no viable cells remained)
  IC100: 3.5 µM
E-ras cells
  DNA breaks: drug concentration-dependent DNA breaks
MDA-MB-231 cells; 18 hrs of drug exposure
  M phase block (nuclei with G2 content of DNA): nuclei with a G2 content of DNA had accumulated, indicating M phase block
MDA-MB-231 cells; colcemid 0.1 μg/ml, 4 hrs
  cell cycle block in M phase, comparison of DIME and colcemid: indistinguishable with respect to the cell cycle block in M phase
[1]; 1 μM DIME
  decrease of Vmax: ~50%
[1]; 1 μM DIME, versus GTP
  type of inhibition of MTP polymerization: "mixed" type inhibition
[1]; 1 μM DIME, 6.7 μM without drug, read-out: km GTP
  Km: 14 µM
[1]; 10 μM, 1 mM GTP, 37° C.
  Percent inhibition of initial velocity of microtubule assembly: 93%
[1]; 1 to 5 μM
  inhibition of GTP-dependent polymerization of MTP: inhibits the GTP-dependent polymerization of MTP
[2]
  noticeable toxicity: no noticeable toxicity
Rana pipiens tadpoles
  metamorphosis / cell differentiating activity: no significant metabolic or cell differentiating activity
[3]
  growth of mouse pituitary tumor: no inhibitory activity
